Results: patent US10717968B2, “Polymerases for nucleotide analogue incorporation” (Pacific Biosciences of California, Inc., priority 2005, dated 2020)

Legend:
Format in all cases: biochemical
dTTP, dATP, dGTP = assay: Assay with three native nucleotides (dGTP, dTTP and dATP); conditions: three native nucleotides at 20 μM; circular template, no G residues
Protocol: (§1) The Φ29 DNA polymerase (parental enzyme or mutant) was preincubated with DNA template (72 nucleotide circular DNA including mostly repetitive sequence AGTC) with annealed DNA primer. The preincubation mix includes three native nucleotides (dTTP, dATP and dGTP) and a terminal labeled nucleotide analogue (A488dC4P or A568dC4P) at 10 μM concentration. After a short preincubation, the reaction was started with MnCl2. The reaction was stopped with EDTA, and the products were separated using agarose gel electrophoresis and stained with SYBR Gold (Invitrogen). The average length of the DNA generated with DNA polymerase was determined and used to estimate the polymerization rate. See, e.g., Table 2 Columns G and H.
The Φ29 DNA polymerase (parental enzyme or mutant) was preincubated with DNA template (circular DNA including mostly repetitive sequence CAT, no G residues) with annealed DNA primer; the preincubation mix includes three native nucleotides (dTTP, dATP and dGTP). All subsequent steps were basically as described above in the section entitled “Assay with a single analogue at low concentration (10 μM) and three native nucleotides.” See, e.g., Table 2 Column B.

[1] = system: DNA template (72 nucleotide circular DNA) with annealed DNA primer; assay: Processivity assay; conditions: dNTP, MnCl2, heparin trap, 20 min; 1.0 minus Poff
Text: The processivity (dissociation/kb) of the polymerase is estimated in a primer extension reaction performed in the presence of “Trap” (unlabeled competitor DNA or heparin). The processivity assay is designed to select mutants that retain the capability to synthesize a long DNA product in a continuous polymerization run (without polymerization reinitiation) with natural nucleotides. Mutants with a significant decrease in processivity are not selected for the next step.
The Φ29 DNA polymerase (parental enzyme or mutant) was preincubated with DNA template (72 nucleotide circular DNA including mostly repetitive sequence AGTC) with annealed DNA primer. After a short preincubation, the reaction was started with a starting mix including MnCl2, dNTP and heparin. Including the heparin in the reaction prevents polymerization from reinitiating after the polymerase dissociates from the template/primer, so that all generated DNA products are a result of continuous polymerization runs. After 20 min incubation, the reaction was stopped with EDTA and the products were separated using agarose gel electrophoresis and stained with SYBR Gold (Invitrogen). The DNA products were analyzed basically as described in Bibillo A, Eickbush T H. J Biol Chem. 2002 Sep. 20; 277(38):34836-45, Epub 2002 Jul. 5. The results were fitted with single exponential equation A*exp(−Poff*kb) where A is amplitude, Poff is the probability of premature polymerase dissociation, and kb is DNA length (1000 nucleotides). The probability of chain elongation (processivity) can be readily calculated by subtracting the Poff value from 1.0. See, e.g., Table 2 Column J.

[2] = system: natural (native) nucleotides; assay: Initial characterization: specific activity with natural (native) nucleotides
Protocol: The recombinant polymerase is initially evaluated on the quality of the protein preparation and basic catalytic activity. The polymerase's activity is analyzed with natural (native) nucleotides, and its specific activity (units/mg) is determined. Only catalytically competent mutants are selected for the next steps.

[3] = system: Alexa488-O-dA4P, FAM-Alexa532-O-dG4P, FAM-Alexa594-O-dT4P, Alexa633-O-dC4P; assay: Screening: rate with set of four nucleotide analogues; conditions: four analogues at 10 μM each, 1 mM MnCl2
A633dC4P = assay: Screening: rate with A633dC4P and dA, dG, dTTP; conditions: for Rate High: 25 μM A633dC4P with 20 μM dA; for Ratio (Low/High): (rate at 5 μM A633dC4P)/(rate at 25 μM A633dC4P), each with 20 μM dA, 1 mM MnCl2, higher ratio = lower Km
A488dC4P [4] = assay: Nucleotide analogue concentration dependence of the polymerization rate, A488dC4P; conditions: for A488dC4P, kel / Km: circular AGTC template, dTTP, dATP, dGTP 20 μM each; for Km as % of the Km of N62D Φ29 for A488dC4P: relative to N62D Φ29, from Table 2
Protocol: (§2) The most promising polymerase mutants are characterized by determination of the polymerization rate and Km for A488dC4P and A568dC4P and a subset of natural nucleotides (dATP, dGTP and dTTP), using a circular template (AGTC). Velocity is measured at several different concentrations of the analogs, A488dC4P (a representative good substrate) and A568dC4P (a representative less preferred substrate).
(§3) The Φ29 DNA polymerase (parental enzyme or mutant) was preincubated with a DNA template (72 nucleotide circular DNA including mostly repetitive sequence AGTC) with annealed DNA primer. The preincubation mix includes also three native nucleotides (dTTP, dATP and dGTP 20 μM each) and various concentrations of the terminally labeled analogue (A488dC4P or A568dC4P). All subsequent steps were basically as described above in the section entitled “Assay with a single analogue at low concentration (10 μM) and three native nucleotides.” An average length of the DNA products generated with DNA polymerase at an individual analogue concentration was determined, and the results were fitted with the equation k=kel*[S]*(Kd+[S])^−1 where k is the observed polymerization rate, kel is the polymerization rate at saturating substrate concentration (kel measures incorporation of multiple residues), and [S] is substrate concentration. See, e.g., Table 2 Columns C, D, E, and F.

Alexa633-O-dC4P = assay: Km and Vmax versus analogue Alexa633-O-dC4P; conditions: Alexa633-O-dC4P (A633dC4P)
Protocol: (§4) Km and Vmax were determined for exemplary recombinant Phi29 polymerases and various nucleotide analogues.

[5] = system: A488dA4P, A633dC4P, A546dG4P, A594dT4P; assay: Assay with four terminally labeled nucleotide analogs; conditions: four terminally labeled analogs all at 10 μM
Protocol: Polymerization rate (bases/min) with four analogues at 10 μM (A488dA4P, A633dC4P, A546dG4P and A594dT4P) and circular template (AGTC, a 72mer circular template largely consisting of a repeating AGTC motif) is determined.
The procedure is basically as described above in the section entitled “Assay with a single analogue at low concentration (10 μM) and three native nucleotides,” with the exception that in this assay all nucleotides are terminally labeled (A488dA4P, A633dC4P, A546dG4P, A594dT4P all at 10 μM). See, e.g., Table 2 Column I.

A568dC4P [6] = assay: Assay with a single analogue at low concentration (10 μM) and three native nucleotides, A568dC4P; conditions: single analogue at 10 μM and three native nucleotides
Protocol: as §1

Alexa555-C2-dT4P = assay: Km and Vmax versus analogue Alexa555-C2-dT4P
Protocol: as §4

A568dC4P [7] = assay: Nucleotide analogue concentration dependence of the polymerization rate, A568dC4P; conditions: for A568dC4P, kel / Km: circular AGTC template, dTTP, dATP, dGTP 20 μM each; for Km as % of the Km of N62D Φ29 for A568dC4P: relative to N62D Φ29, from Table 2
Protocol: as §2, §3

A488dC4P [8] = assay: Assay with a single analogue at low concentration (10 μM) and three native nucleotides, A488dC4P; conditions: single analogue at 10 μM and three native nucleotides
Protocol: as §1

Alexa532-O-dG4P = assay: Km and Vmax versus analogue Alexa532-O-dG4P
Protocol: as §4

A594-dT4P = assay: FRET stopped flow assay, rates of binding and product release; conditions: nucleotide analogue A594-dT4P
Protocol: Rates of binding and product release were determined for exemplary recombinant Phi29 polymerases with nucleotide analogue A594-dT4P using a FRET stopped flow assay as schematically illustrated in FIG. 7A. Results are depicted graphically in FIGS. 7B-D for Phi29 N62D (FIG. 7B), N62D:E375Y (FIG. 7C), and N62D:E375W (FIG. 7D).

Alexa568-dA4P = assay: FRET stopped flow assay, branching rate; conditions: dideoxy-terminated primer, native dATP trap
Protocol: Relative branching rate (dissociation of the analogue without incorporation, i.e., substrate dissociation) was also determined for exemplary recombinant Phi29 polymerases with nucleotide analogue Alexa568-dA4P (also called A568-dA4P), using a FRET stopped flow assay as schematically illustrated in FIG. 8A. In this technique, a template with a FRET donor dye compatible for FRET with the corresponding dye on the nucleotide analogue is employed. The primer has a dideoxy-termination at the 3′ end to prevent incorporation. The analogue is pre-mixed with the enzyme-template-dideoxy primer complex. In the stopped flow apparatus, this preformed complex is rapidly mixed with the corresponding native nucleotide (native dATP, in this example) in excess which serves as a “trap” to prevent rebinding of the analogue after it dissociates. The increase in donor dye fluorescence is monitored as a means of monitoring the dissociation/branching rate of the analogue.

Row | Substance | Product Release Rate (A594-dT4P) [s⁻¹] | dTTP, dATP, dGTP (no G fork) V at 20 μM (dTTP, dATP, dGTP) | Processivity [1] [kb^−1] | Specific Activity [2] | Hz Rate [3] [Hz] | Rate High (A633dC4P) | Ratio (Low/High) (A633dC4P) | A488dC4P, kel (A488dC4P [4]) [bp/min] | Km (A488dC4P [4]) [µM] | Km as % of the Km of N62D Φ29 for A488dC4P (A488dC4P [4]) | Km (Alexa633-O-dC4P) [µM] | A488dA4P, A633dC4P, A546dG4P, A594dT4P, V at 10 μM [5] | A568dC4P, V at 10 μM (A568dC4P [6]) | Km (Alexa555-C2-dT4P) [µM] | A568dC4P, kel (A568dC4P [7]) | Km (A568dC4P [7]) [µM] | Km as % of the Km of N62D Φ29 for A568dC4P (A568dC4P [7]) | A488dC4P, V at 10 μM (A488dC4P [8]) | Km (Alexa532-O-dG4P) [µM] | Branching Rate (Alexa568-dA4P) [s⁻¹] | also measured
1 | His-E375H-N62D: Phi 29 polymerase with E375H and N62D mutations (SEQ ID NOs:4, 25) | – | 780 | 0.9510 | 10,945,000 units/mg | 9.4 | 510.1 | 0.445 | 950 | 8 | about 40% | 17 | 123 | 366 | 15 | 930 | 11 | about 15% | 411 | – | – | –
2 | His-E375S-N62D: Phi 29 polymerase with E375S and N62D mutations (SEQ ID NOs:5, 26) | – | 940 | 0.9815 | 10,961,000 units/mg | 5.9 | 528.4 | 0.335 | 1190 | 15 | about 75% | 16.5 | 74 | 332 | – | 1300 | 28 | about 38% | 420 | 40 | – | –

Further lines, with some results ahead:

Row | Product Release Rate (A594-dT4P) [s⁻¹] | Substance | dTTP, dATP, dGTP (no G fork) V at 20 μM (dTTP, dATP, dGTP) | Processivity [1] [kb^−1] | Specific Activity [2] | Hz Rate [3] [Hz] | Rate High (A633dC4P) | Ratio (Low/High) (A633dC4P) | A488dC4P, kel (A488dC4P [4]) [bp/min] | Km (A488dC4P [4]) [µM] | Km as % of the Km of N62D Φ29 for A488dC4P (A488dC4P [4]) | Km (Alexa633-O-dC4P) [µM] | A488dA4P, A633dC4P, A546dG4P, A594dT4P, V at 10 μM [5] | A568dC4P, V at 10 μM (A568dC4P [6]) | Km (Alexa555-C2-dT4P) [µM] | A568dC4P, kel (A568dC4P [7]) | Km (A568dC4P [7]) [µM] | Km as % of the Km of N62D Φ29 for A568dC4P (A568dC4P [7]) | A488dC4P, V at 10 μM (A488dC4P [8]) | Km (Alexa532-O-dG4P) [µM] | Branching Rate (Alexa568-dA4P) [s⁻¹] | also measured
3 | 76 | N62D: E375W: Phi29 polymerase with E375W and N62D mutations | – | – | – | 19.1 | 699.4 | 0.677 | – | – | – | 1.8 | – | – | 5 | – | – | – | – | 16 | 43 | rates of binding and product release compared with the parent enzyme (A594-dT4P): increased rates of binding and product release
4 | 117 | N62D: E375Y: Phi29 polymerase with E375Y and N62D mutations | – | – | – | 12.1 | 498.5 | 0.694 | – | – | – | 2.5 | – | – | 6.6 | – | – | – | – | 18 | 31 | rates of binding and product release compared with the parent enzyme (A594-dT4P): increased rates of binding and product release
5 | 55 | N62D: N62D Phi29 DNA polymerase, parent enzyme in Tables 4, 6 and 7; tag not stated [reference compound] | – | – | – | – | – | – | – | – | – | 23 | – | – | 20 | – | – | – | – | 68 | 90 | –
